# Experimental data published in PubChem BioAssay AID1919005 (Molecular Pharmacology Branch, DTP, NCI, 2023).
# System: 855422-203-R-J1-PDC complex spheroid growth
# Experiment: Anticancer human tumor 855422-203-R-J1-PDC patient-derived bladder carcinoma cell line growth inhibition [AhR]
# Conditions: for IC50: curve of first compound; for viability, T/C: stronger effect = lower value
# Text: Multicellular complex tumor spheroid response to aryl hydrocarbon receptor antagonists in combination with a variety of drugs and investigational agents in selected tumor cell lines
# The current study was undertaken to assess response to aryl hydrocarbon receptor antagonists in combination with standard-of-care drugs and investigational agents in solid tumor complex spheroid models. Complex spheroids include a stromal component modeled by human endothelial cells (HUVEC) and fibroblasts modeled by human mesenchymal stem cells (MSCs). The concentration ranges selected for each drug and investigational agent were based upon clinically achievable concentrations if the clinical Cmax of the agent was known.
# Compounds. The drugs and investigational agents: BAY 2416964 (NSC825713), GNF351 (NSC835774), CH-223191 (NSC835775), CPI-455 (NSC825282), aza-TdCyd (NSC777586), decitabine (NSC127716), belinostat (NSC758774), entinostat (NSC756642), pevonedistat (NSC761192), tazemetostat (NSC777109), talazoparib (NSC765396), olaparib (NSC753686), selinexor (NSC780203), nedisertib (M3814, NSC802822), bortezomib (NSC756655), venetoclax (NSC766270), doxorubicin (NSC123127), elimusertib (BAY189344, NSC800525), ceralasertib (AZD6738, NSC777638), TAK-243 (NSC785004), alisertib (NSC759677), etoposide (NSC141540), topotecan (NSC609699), eribulin (NSC707389), gemcitabine (NSC613327), carboplatin (NSC241240), cisplatin (NSC119875), and SN-38 (NSC673596) were obtained from the National Cancer Institute (NCI) Developmental Therapeutics Program Chemical Repository (32). The FDA-approved anticancer drug set is available from the Developmental Therapeutics Program at https://dtp.cancer.gov/organization/dscb/obtaining/available plates.htm. […] The stock solutions were prepared in dimethyl sulfoxide (DMSO, Sigma-Aldrich, St. Louis, MO, cat. D2650), except for the platinum compounds which were prepared in saline (Quality Biological, Gaithersburg, MD, cat. 114-055-101), at 800-fold the tested concentration and stored at -70 degrees C prior to their use. All drugs and investigational agents were tested over a range starting from a high concentration at or near the clinical Cmax and decreasing in half-log increments. If the clinical Cmax for an agent had not been determined, the highest concentration tested was 10 microM (Table 1).
# Cell Culture. All cells were maintained in an incubator at 37 degrees C and 5% CO2 with 95% humidity. The PDC lines were cultured according to standard operating procedures established by the NCI PDMR (https://pdmr.cancer.gov). Briefly, all PDCs were thawed and cultured in Matrigel-coated flasks prepared with a working solution of 1X Ham's F-12 nutrient mix, without supplementation (Invitrogen, Waltham, MA, cat. 11765054), 100 U/mL penicillin-streptomycin (Invitrogen, cat. 15140122), and 2.5% Matrigel (Corning Inc., Corning, NY, cat. 354248) for the first three passages. All PDCs were cultured in complete DMEM/F-12 media containing advanced DMEM/F-12 (Invitrogen, cat. 12634028), 4.9% defined fetal bovine serum, heat inactivated (HyClone Laboratories Inc., Logan, UT, cat. SH30070.03HI), 389 ng/mL hydrocortisone (Sigma-Aldrich, cat. H4001), 9.7 ng/mL human EGF recombinant protein (Invitrogen, cat. PHG0313), 23.4 microg/mL adenine (Sigma-Aldrich, cat. A2786), 97.3 U/mL penicillin-streptomycin (Invitrogen, cat. 15140122), 1.9 mM L-glutamine (Invitrogen, cat. 25030081), and 9.7 microM Y-27632 dihydrochloride (Tocris Bioscience, Bristol, United Kingdom, cat. 1254). The PDCs were cultured in complete DMEM/F12 media without 10 microM Y-27632 dihydrochloride for at least two passages prior to the screen. The established cell lines NCI-H1341 and […] were cultured in DMEM/F-12, HEPES (Invitrogen, cat. 11330032), 5% defined fetal bovine serum (HyClone Laboratories Inc., cat. SH30070.03), ITS premix universal culture supplement [insulin (5 microg/mL), transferrin (5 microg/mL), and selenious acid (5 ng/mL)] […]
# [1] = second compound 0.1 µM, first compound 0.0316 µM
# [2] = second compound 0.1 µM, first compound 0.1 µM
# [3] = second compound 0.316 µM, first compound 0.0316 µM
# [4] = second compound 0.316 µM, first compound 0.1 µM
# [5] = second compound 1 µM, first compound 0.0316 µM
# [6] = second compound 1 µM, first compound 0.1 µM
# [7] = second compound 3.16 µM, first compound 0.0316 µM
# [8] = second compound 3.16 µM, first compound 0.1 µM
# [9] = second compound 10 µM, first compound 0.0316 µM
# [10] = second compound 10 µM, first compound 0.1 µM
# 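Further: spheroids exposed to agents for seven days before readout.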
# 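Wherever viability, T/C is given: percent of DMSO vehicle control luminescence viability.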
compound,measurement,setting,value
CC[C@@]1(O)C(=O)OCc2c1cc1n(c2=O)Cc2cc3c(CN(C)C)c(O)ccc3nc2-1 + CC(CO)NC(=O)c1cc(-c2ccc(Cl)cc2)nn(-c2cnn(C)c2)c1=O,IC50,second compound 0.1 µM,60.2 nM
same,IC50,second compound 0.316 µM,58.6 nM
same,IC50,second compound 1 µM,56.4 nM
same,IC50,second compound 3.16 µM,54.7 nM
same,IC50,second compound 10 µM,45.1 nM
same,"viability, T/C","second compound 0.1 µM, first compound 0.000316 µM",96.7%
same,"viability, T/C","second compound 0.1 µM, first compound 0.001 µM",97.5%
same,"viability, T/C","second compound 0.1 µM, first compound 0.00316 µM",93.7%
same,"viability, T/C","second compound 0.1 µM, first compound 0.01 µM",102%
same,"viability, T/C",[1],86.5%
same,"viability, T/C",[2],20.9%
same,"viability, T/C","second compound 0.316 µM, first compound 0.000316 µM",106%
same,"viability, T/C","second compound 0.316 µM, first compound 0.001 µM",100%
same,"viability, T/C","second compound 0.316 µM, first compound 0.00316 µM",98.8%
same,"viability, T/C","second compound 0.316 µM, first compound 0.01 µM",98.9%
same,"viability, T/C",[3],87.3%
same,"viability, T/C",[4],17.9%
same,"viability, T/C","second compound 1 µM, first compound 0.000316 µM",104%
same,"viability, T/C","second compound 1 µM, first compound 0.001 µM",97.8%
same,"viability, T/C","second compound 1 µM, first compound 0.00316 µM",105%
same,"viability, T/C","second compound 1 µM, first compound 0.01 µM",104%
same,"viability, T/C",[5],84.9%
same,"viability, T/C",[6],15.5%
same,"viability, T/C","second compound 3.16 µM, first compound 0.000316 µM",99.4%
same,"viability, T/C","second compound 3.16 µM, first compound 0.001 µM",96.6%
same,"viability, T/C","second compound 3.16 µM, first compound 0.00316 µM",93%
same,"viability, T/C","second compound 3.16 µM, first compound 0.01 µM",95.5%
same,"viability, T/C",[7],83.5%
same,"viability, T/C",[8],13%
same,"viability, T/C","second compound 10 µM, first compound 0.000316 µM",86.2%
same,"viability, T/C","second compound 10 µM, first compound 0.001 µM",100%
same,"viability, T/C","second compound 10 µM, first compound 0.00316 µM",102%
same,"viability, T/C","second compound 10 µM, first compound 0.01 µM",96.3%
same,"viability, T/C",[9],65.8%
same,"viability, T/C",[10],14.8%
Nc1ccn(C2OC(CO)C(O)C2(F)F)c(=O)n1 (stereo not given) + CC(CO)NC(=O)c1cc(-c2ccc(Cl)cc2)nn(-c2cnn(C)c2)c1=O,IC50,second compound 0.1 µM,232 nM
same,IC50,second compound 0.316 µM,166 nM
same,IC50,second compound 1 µM,175 nM
same,IC50,second compound 3.16 µM,99.5 nM
same,IC50,second compound 10 µM,132 nM
same,"viability, T/C",[1],99.4%
same,"viability, T/C",[2],79.7%
same,"viability, T/C","second compound 0.1 µM, first compound 0.316 µM",38.5%
same,"viability, T/C","second compound 0.1 µM, first compound 1 µM",18.7%
same,"viability, T/C","second compound 0.1 µM, first compound 3.16 µM",14.4%
same,"viability, T/C","second compound 0.1 µM, first compound 10 µM",10.5%
same,"viability, T/C",[3],88.4%
same,"viability, T/C",[4],71.2%
same,"viability, T/C","second compound 0.316 µM, first compound 0.316 µM",22.9%
same,"viability, T/C","second compound 0.316 µM, first compound 1 µM",15.9%
same,"viability, T/C","second compound 0.316 µM, first compound 3.16 µM",13.2%
same,"viability, T/C","second compound 0.316 µM, first compound 10 µM",8.62%
same,"viability, T/C",[5],97.8%
same,"viability, T/C",[6],74.3%
same,"viability, T/C","second compound 1 µM, first compound 0.316 µM",23.9%
same,"viability, T/C","second compound 1 µM, first compound 1 µM",17.8%
same,"viability, T/C","second compound 1 µM, first compound 3.16 µM",14.4%
same,"viability, T/C","second compound 1 µM, first compound 10 µM",8.17%
same,"viability, T/C",[7],89.9%
same,"viability, T/C",[8],50.2%
same,"viability, T/C","second compound 3.16 µM, first compound 0.316 µM",22.2%
same,"viability, T/C","second compound 3.16 µM, first compound 1 µM",16.1%
same,"viability, T/C","second compound 3.16 µM, first compound 3.16 µM",11.3%
same,"viability, T/C","second compound 3.16 µM, first compound 10 µM",9.74%
same,"viability, T/C",[9],81.3%
same,"viability, T/C",[10],59.6%
same,"viability, T/C","second compound 10 µM, first compound 0.316 µM",19.9%
same,"viability, T/C","second compound 10 µM, first compound 1 µM",14.6%
same,"viability, T/C","second compound 10 µM, first compound 3.16 µM",14.5%
same,"viability, T/C","second compound 10 µM, first compound 10 µM",8.36%
